Test results reported in ChEMBL document CHEMBL3045099, “Action mechanism of isoxazoline-type herbicides” (J Pestic Sci, 2012).

Legend:
Echinochloa crus-galli [1] = test: Ratio of I50 for very long-chain fatty acid elongase in Echinochloa crus-galli (barnyard grass) to EC50 for shoot elongation inhibition in Echinochloa crus-galli (barnyard grass)
Echinochloa crus-galli [2] = test: Inhibition of shoot elongation in Echinochloa crus-galli (barnyard grass); type: functional, organism-based
[3] = Inhibition of Very long-chain fatty acid elongase in Echinochloa crus-galli (barnyard grass); conditions: read-out: I50

Cn1nc(C(F)(F)F)c(CS(=O)(=O)C2=NOC(C)(C)C2)c1OC(F)F [PYROXASULFONE]
Ratio (Echinochloa crus-galli [1]): 10 | EC50 (Echinochloa crus-galli [2]): 30 nM | IC50 [3]: 300 nM

CCOc1cc(Cl)c(CS(=O)(=O)C2=NOC(C)(C)C2)cc1Cl [FENOXASULFONE]
Ratio (Echinochloa crus-galli [1]): 10 | EC50 (Echinochloa crus-galli [2]): 30 nM | IC50 [3]: 300 nM
